The subject of test [1] is Zymoseptoria tritici. Kind of test: Leaf Blotch of Wheat fungicidal activity (SEPTTR). In kind it is in vivo. Conditions: Low Volume Cereal Activity at 121.5 g/Ha.
For test [2], the system named is Puccinia triticina. Kind of test: Wheat Brown Rust fungicidal activity (PUCCRT). Conditions: Low Volume Cereal Activity at 121.5 g/Ha. The class given is in vivo.
The subject of test [3] is Phakopsora pachyrhizi. Kind of test: Asian Soybean Rust fungicidal activity (PHAKPA). Conditions: Phakopsora pachyrhizi, in Glycine max.
[4] abbreviates: 24 h, 1 Day Protectant, read-out: SEPTTR 1DP (Wheat Leaf Blotch, 1 Day Protectant).
Where [5] appears, read: 72 h, 3 Day Curative, read-out: SEPTTR 3DC (Wheat Leaf Blotch, 3 Day Curative).
Where [6] appears, read: 24 h, 1 Day Protectant, read-out: PUCCRT 1DP (Wheat Brown Rust, 1 Day Protectant).
Setting [7] is: 72 h, 3 Day Curative, read-out: PUCCRT 3DC (Wheat Brown Rust, 3 Day Curative).
[8] abbreviates: 24 h, read-out: PHAKPA 1DP % Control rating, soybean, high volume, 25 ppm, 1 Day Protectant.
Where [9] appears, read: 72 h, read-out: PHAKPA 3DC % Control rating, soybean, high volume, 25 ppm, 3 Day Curative.

Among the data in patent US20180002288A1, “USE OF PICOLINAMIDES AS FUNGICIDES” (DOW AGROSCIENCES LLC, priority 2014, published 2018) are pest or weed control values, retold here.

Where two headings read alike, the source gives them in different places.

For `COc1ccnc(C(=O)N[C@@H](C)C(=O)O[C@@H](C)[C@H](Oc2ccccc2)c2ccc(F)cc2OCC2CC2)c1OC(C)=O` [Example 272], the pest or weed control at 121.5 g/ha in test [1] (setting [4]), in test [1] (setting [5]), in test [2] (setting [6]) and in test [2] (setting [7]) was more than 80% throughout. The pest or weed control at 25 ppm in test [3] (setting [8]) was less than 80%; in test [3] (setting [9]), less than 0%.

For the molecule `COc1cc(C)ccc1[C@@H](Oc1ccc(C)cc1)[C@H](C)OC(=O)[C@H](C)NC(=O)c1nccc(OC)c1OC(C)=O` [Example 274], the pest or weed control at 121.5 g/ha in test [1] (setting [4]) is more than 80%; in test [1] (setting [5]) it was more than 80%; in test [2] (setting [6]) it was more than 80%; in test [2] (setting [7]), less than 80%. Besides, the pest or weed control at 25 ppm in test [3] (setting [8]) is less than 80%; in test [3] (setting [9]), less than 0%.

For `COc1ccnc(C(=O)N[C@@H](C)C(=O)O[C@@H](C)[C@H](Oc2ccccc2)c2ccc(F)cc2OCC(F)F)c1OC(C)=O` [Example 273], the pest or weed control at 121.5 g/ha in test [1] (setting [4]), in test [1] (setting [5]), in test [2] (setting [6]) and in test [2] (setting [7]) was more than 80% in each case. For the same molecule, the pest or weed control at 25 ppm was less than 80% in test [3] (setting [8]) and less than 0% in test [3] (setting [9]).

On to `COc1ccnc(C(=O)N[C@@H](C)C(=O)O[C@@H](C)[C@H](Oc2ccccc2)c2ccc(C)cc2F)c1OCOC(C)=O` [Example 261], for which the pest or weed control at 121.5 g/ha in test [1] (setting [4]), in test [1] (setting [5]), in test [2] (setting [6]) and in test [2] (setting [7]) was more than 80% each time. The pest or weed control at 25 ppm in test [3] (setting [8]) was more than 80%; in test [3] (setting [9]) it was less than 0%.

As to `COc1ccnc(C(=O)N[C@@H](C)C(=O)O[C@@H](C)[C@H](OCC2CC2)c2ccccc2)c1OCOC(C)=O` [Example 182], the pest or weed control at 121.5 g/ha in test [1] (setting [4]), in test [1] (setting [5]), in test [2] (setting [6]) and in test [2] (setting [7]) was more than 80% in each case. Moreover, the pest or weed control at 25 ppm in test [3] (setting [8]) is more than 80%; in test [3] (setting [9]), less than 80%.

With `COc1ccnc(C(=O)N[C@@H](C)C(=O)O[C@@H](C)[C@@H](OC)c2ccccc2)c1OCOC(C)=O` [Example 230], the pest or weed control at 121.5 g/ha was less than 0% in test [1] (setting [4]), more than 80% in test [1] (setting [5]), more than 80% in test [2] (setting [6]) and more than 80% in test [2] (setting [7]). The pest or weed control at 25 ppm in test [3] (setting [8]) and in test [3] (setting [9]) was less than 80% each time.

As for `COc1ccnc(C(=O)N[C@@H](C)C(=O)O[C@@H](C)[C@H](Oc2cccc(F)c2)c2ccccc2)c1OC(C)=O` [Example 188], the pest or weed control at 121.5 g/ha in test [1] (setting [4]), in test [1] (setting [5]), in test [2] (setting [6]) and in test [2] (setting [7]) was more than 80% in each case. Besides, the pest or weed control at 25 ppm in test [3] (setting [8]) is more than 80%; in test [3] (setting [9]), less than 80%.

As for `COc1ccnc(C(=O)N[C@@H](C)C(=O)O[C@@H](C)[C@H](Oc2ccccc2)c2ccc(F)cc2Oc2ccccc2)c1OC(C)=O` [Example 275], the pest or weed control at 121.5 g/ha in test [1] (setting [4]) was more than 80%; in test [1] (setting [5]), less than 80%; in test [2] (setting [6]) it was more than 80%; in test [2] (setting [7]), more than 80%. In addition, the pest or weed control at 25 ppm in test [3] (setting [8]) was less than 80%; in test [3] (setting [9]) it was less than 0%.
